{"source": "patent US10947574B2", "about": "“Method for producing fermented carotenoid using carotenoid-producing bacteria obtained by using cobalt-containing culturing medium” (ENEOS CORPORATION, priority 2015, dated 2021)", "test_system": "Paracoccus carotinifaciens strain E-396 (FERM BP-4283)", "type": "cell-based", "description": "Subsequently, a medium of the following composition (glucose 30 g/L, filtered corn steep liquor 30 g/L, ammonium sulfate 1.5 g/L, potassium dihydrogen phosphate 1.5 g/L, disodium hydrogen phosphate dodecahydrate 3.8 g/L, calcium chloride dihydrate 5.0 g/L, magnesium sulfate heptahydrate 0.7 g/L, iron sulfate heptahydrate 1.0 g/L, silicon-based defoaming agent 0.2 g/L) was dispensed in 7.2 ml volumes into cotton-plugged test tubes having an inner diameter of 18 mm to prepare 13 test tubes containing a test tube medium for production. The ingredients used to prepare the test tube medium for production were obtained from lots where microbial cells had been confirmed not to grow well.\nThe 12 trace metals indicated in Table 1 were separately prepared in 0.8 ml volumes to have their final concentrations indicated in Table 1 and then added to the above 12 test tubes for production, respectively. The remaining one test tube was supplemented with 0.8 ml of ion exchanged water.\nThe resulting culture solution was then inoculated in 0.05 ml volumes into the 13 types of test tube media for production and cultured under shaking at 28° C. for 4 days at 300 spm.", "data": [{"molecule": "O.O.O.O.O.O.[Cl-].[Cl-].[Co+2]", "note": "[Cobalt chloride hexahydrate]", "values": [{"measurement": "microbial cell growth (by OD610), in words", "value": "good growth"}, {"measurement": "OD610", "setting": "each trace metal added singly at final concentration of Table 1, shaking at 28° C. for 4 days", "value": 32}]}]}
